US8026257B2 (Bristol-Myers Squibb Company, priority 2007, dated 2011)
pIC50: −log10 of the molar value. Where two headings read alike, the source gives them in different places.

Columns and labels:
NK-1 = biological target: T1, NK-1 (Homo sapiens, UniProt P25103); test: NK1 radioligand binding assay ([125I]Substance P, U373 membranes); conditions: U373 cell membranes, 200 pM [125I]Substance P, 1 hour at room temperature
T1 construct: 30 ul/well of a 2×U373 membrane preparation
How it was run: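 Displacement of Kd-level [125I]Substance P (400 pM 2× stock) from U373 membranes in pH 7.5 Tris-Cl/MgCl2 buffer with protease inhibitors, 1 h, room temperature. Filtration onto GF/B, then scintillation counting. Percent inhibition, referenced to DMSO and L-733,060 wells, fitted by four-parameter equation to give IC50; triplicate plates.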

hSERT = hSERT (Homo sapiens, UniProt P31645); test: SERT radioligand binding assay ([125I]RTI-55, HEK-hSERT membranes); conditions: HEK-293 hSERT membranes, 260 pM [125I]RTI-55, 1 hour at room temperature; for pIC50: read-out: SERT IC50
How it was run: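 IC50 values derive from four-parameter fits of triplicate percent-inhibition curves, with DMSO as 0% and fluoxetine as 100%. Binding used [125I]RTI-55 at its Kd (520 pM 2× solution) and HEK-hSERT membranes (15 ug/ml 2×) in Tris/NaCl/KCl, pH 7.5, 1 hour, room temperature. Filter-bound radioactivity was counted.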

Sequence of hSERT (P31645 whole entry): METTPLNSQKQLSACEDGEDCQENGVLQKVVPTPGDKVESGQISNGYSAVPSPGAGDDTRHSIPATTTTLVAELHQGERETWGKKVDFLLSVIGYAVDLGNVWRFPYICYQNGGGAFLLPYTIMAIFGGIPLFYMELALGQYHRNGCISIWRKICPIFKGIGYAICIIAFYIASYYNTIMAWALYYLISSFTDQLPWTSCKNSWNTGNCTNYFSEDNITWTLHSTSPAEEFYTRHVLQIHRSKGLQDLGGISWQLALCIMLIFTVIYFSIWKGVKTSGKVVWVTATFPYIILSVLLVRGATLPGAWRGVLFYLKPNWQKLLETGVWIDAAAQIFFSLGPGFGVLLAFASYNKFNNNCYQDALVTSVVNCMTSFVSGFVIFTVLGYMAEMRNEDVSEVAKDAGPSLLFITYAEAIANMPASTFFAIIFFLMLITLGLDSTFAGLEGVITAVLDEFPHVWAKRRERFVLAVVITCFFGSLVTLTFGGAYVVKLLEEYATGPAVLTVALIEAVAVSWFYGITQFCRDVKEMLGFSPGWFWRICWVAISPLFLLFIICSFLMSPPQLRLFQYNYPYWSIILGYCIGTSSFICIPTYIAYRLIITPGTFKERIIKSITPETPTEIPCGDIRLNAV
T1 sequence (P25103 whole entry): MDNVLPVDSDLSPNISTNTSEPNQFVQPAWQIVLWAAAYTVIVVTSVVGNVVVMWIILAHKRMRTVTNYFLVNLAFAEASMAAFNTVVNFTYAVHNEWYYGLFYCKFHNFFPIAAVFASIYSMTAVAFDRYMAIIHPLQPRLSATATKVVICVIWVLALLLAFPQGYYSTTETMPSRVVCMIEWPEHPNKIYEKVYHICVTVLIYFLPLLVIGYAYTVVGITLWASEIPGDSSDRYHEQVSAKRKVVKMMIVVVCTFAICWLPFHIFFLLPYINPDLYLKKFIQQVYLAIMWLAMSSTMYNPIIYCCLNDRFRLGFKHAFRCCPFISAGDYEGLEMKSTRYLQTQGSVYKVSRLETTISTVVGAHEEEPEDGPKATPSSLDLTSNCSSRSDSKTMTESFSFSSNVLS

Molecule `CCn1cnc2c(C(C)OCC3(c4ccccc4)CCN(C)CC3)cc(C(F)(F)F)cc21` (single isomer, unassigned) [Example 137] has a pIC50 (NK-1) of 6.52 to 7.00 and a pIC50 (hSERT) of 7.00 to 11.00.

In the case of `Cc1cc(COCC2(c3ccccc3)CCNCC2)cc2cn[nH]c12` [Example 1, 7-Methyl-5-(((4-phenylpiperidin-4-yl)methoxy)methyl)-1H-indazole], the pIC50 (NK-1) was < 6.52 and the pIC50 (hSERT) was 7.00 to 11.00.

In the case of `Brc1cc(COCC2(c3ccccc3)CCNCC2)c2[nH]ncc2c1` [Example 2, 5-Bromo-7-(((4-phenylpiperidin-4-yl)methoxy)methyl)-1H-indazole], the pIC50 (NK-1) was 7.00 to 11.00 and the pIC50 (hSERT) was 7.00 to 11.00.

In the case of `N#Cc1ccc(-c2cc(COCC3(c4ccccc4)CCNCC3)c3[nH]ncc3c2)cc1` [Example 3, 4-(7-(((4-Phenylpiperidin-4-yl)methoxy)methyl)-1H-indazol-5-yl)benzonitrile], the pIC50 (NK-1) was 7.00 to 11.00 and the pIC50 (hSERT) was 7.00 to 11.00.

`Cn1ncc2cc(-c3ccc(C#N)cc3)cc(COCC3(c4ccccc4)CCNCC3)c21` [Example 4, 4-(1-Methyl-7-(((4-phenylpiperidin-4-yl)methoxy)methyl)-1H-indazol-5-yl)benzonitrile] showed a pIC50 (NK-1) of 6.52 to 7.00 and a pIC50 (hSERT) of 7.00 to 11.00.

With `Cn1cc2cc(-c3ccc(C#N)cc3)cc(COCC3(c4ccccc4)CCNCC3)c2n1` [Example 5, 4-(2-Methyl-7-(((4-phenylpiperidin-4-yl)methoxy)methyl)-2H-indazol-5-yl)benzonitrile] the pIC50 (NK-1) was < 6.52 and the pIC50 (hSERT) was 7.00 to 11.00.

`Cc1cc(COCC2(c3ccccc3)CCNCC2)c2[nH]ncc2c1` [Example 6, 5-Methyl-7-(((4-phenylpiperidin-4-yl)methoxy)methyl)-1H-indazole] was tested, and the pIC50 (NK-1) was 7.00 to 11.00 and the pIC50 (hSERT) was 7.00 to 11.00.

In the case of `Cc1cc(COCC2(c3ccccc3)CCNCC2)c2c(cnn2C)c1` [Example 7, 1,5-Dimethyl-7-(((4-phenylpiperidin-4-yl)methoxy)methyl)-1H-indazole], the pIC50 (NK-1) was 7.00 to 11.00 and the pIC50 (hSERT) was 7.00 to 11.00.

`Cc1cc(COCC2(c3ccccc3)CCNCC2)c2nn(C)cc2c1` [Example 8, 2,5-Dimethyl-7-(((4-phenylpiperidin-4-yl)methoxy)methyl)-2H-indazole] was tested, and the pIC50 (NK-1) was 7.00 to 11.00 and the pIC50 (hSERT) was 7.00 to 11.00.

In the case of `FC(F)(F)c1cc(COCC2(c3ccccc3)CCNCC2)c2[nH]ncc2c1` [Example 9, 7-(((4-Phenylpiperidin-4-yl)methoxy)methyl)-5-(trifluoromethyl)-1H-indazole], the pIC50 (NK-1) was 7.00 to 11.00 and the pIC50 (hSERT) was 7.00 to 11.00.

`CN1CCC(COCc2cc(C(F)(F)F)cc3cn[nH]c23)(c2ccccc2)CC1` [Example 10, 7-(((1-Methyl-4-phenylpiperidin-4-yl)methoxy)methyl)-5-(trifluoromethyl)-1H-indazole] was tested, and the pIC50 (NK-1) was 7.00 to 11.00 and the pIC50 (hSERT) was 7.00 to 11.00.

For `Cn1ncc2cc(C(F)(F)F)cc(COCC3(c4ccccc4)CCNCC3)c21` [Example 11, 1-Methyl-7-(((4-phenylpiperidin-4-yl)methoxy)methyl)-5-(trifluoromethyl)-1H-indazole], the pIC50 (NK-1) was 7.00 to 11.00 and the pIC50 (hSERT) was 7.00 to 11.00.

Molecule `Cn1cc2cc(C(F)(F)F)cc(COCC3(c4ccccc4)CCNCC3)c2n1` [Example 12, 2-Methyl-7-(((4-phenylpiperidin-4-yl)methoxy)methyl)-5-(trifluoromethyl)-2H-indazole] has a pIC50 (NK-1) of 7.00 to 11.00 and a pIC50 (hSERT) of 7.00 to 11.00.

With `CN1CCC(COCc2cc(C(F)(F)F)cc3cnn(C)c23)(c2ccccc2)CC1` [Example 13, 1-Methyl-7-(((1-methyl-4-phenylpiperidin-4-yl)methoxy)methyl)-5-(trifluoromethyl)-1H-indazole] the pIC50 (NK-1) was 7.00 to 11.00 and the pIC50 (hSERT) was 7.00 to 11.00.

Work on `CN1CCC(COCc2cc(C(F)(F)F)cc3cn(C)nc23)(c2ccccc2)CC1` [Example 14, 2-Methyl-7-(((1-methyl-4-phenylpiperidin-4-yl)methoxy)methyl)-5-(trifluoromethyl)-2H-indazole] yielded a pIC50 (NK-1) of 7.00 to 11.00 and a pIC50 (hSERT) of 7.00 to 11.00.

Molecule `Fc1ccc(C2(COCc3cc(C(F)(F)F)cc4cn[nH]c34)CCNCC2)cc1` [Example 15, 7-(((4-(4-Fluorophenyl)piperidin-4-yl)methoxy)methyl)-5-(trifluoromethyl)-1H-indazole] has a pIC50 (NK-1) of 7.00 to 11.00 and a pIC50 (hSERT) of 7.00 to 11.00.

With `CN1CCC(COCc2cc(C(F)(F)F)cc3cn[nH]c23)(c2ccc(F)cc2)CC1` [Example 16, 7-(((4-(4-Fluorophenyl)-1-methylpiperidin-4-yl)methoxy)methyl)-5-(trifluoromethyl)-1H-indazole] the pIC50 (NK-1) was 7.00 to 11.00 and the pIC50 (hSERT) was 7.00 to 11.00.

With `Cn1ncc2cc(C(F)(F)F)cc(COCC3(c4ccc(F)cc4)CCNCC3)c21` [Example 17, 7-(((4-(4-Fluorophenyl)piperidin-4-yl)methoxy)methyl)-1-methyl-5-(trifluoromethyl)-1H-indazole] the pIC50 (NK-1) was 7.00 to 11.00 and the pIC50 (hSERT) was 7.00 to 11.00.

`Cn1cc2cc(C(F)(F)F)cc(COCC3(c4ccc(F)cc4)CCNCC3)c2n1` [Example 18, 7-(((4-(4-Fluorophenyl)piperidin-4-yl)methoxy)methyl)-2-methyl-5-(trifluoromethyl)-2H-indazole] was tested, and the pIC50 (NK-1) was 7.00 to 11.00 and the pIC50 (hSERT) was 7.00 to 11.00.

`CN1CCC(COCc2cc(C(F)(F)F)cc3cnn(C)c23)(c2ccc(F)cc2)CC1` [Example 19, 7-(((4-(4-Fluorophenyl)-1-methylpiperidin-4-yl)methoxy)methyl)-1-methyl-5-(trifluoromethyl)-1H-indazole] showed a pIC50 (NK-1) of 7.00 to 11.00 and a pIC50 (hSERT) of 7.00 to 11.00.

`c1ccc(C2(COCc3cccc4cn[nH]c34)CCNCC2)cc1` [Example 34, 7-(((4-Phenylpiperidin-4-yl)methoxy)methyl)-1H-indazole] was tested, and the pIC50 (NK-1) was 6.52 to 7.00 and the pIC50 (hSERT) was 7.00 to 11.00.

`FC(F)(F)c1cc(COCC2(c3ccccc3)CCNCC2)c2[nH]nc(C3CC3)c2c1` [Example 35, 3-Cyclopropyl-7-(((4-phenylpiperidin-4-yl)methoxy)methyl)-5-(trifluoromethyl)-1H-indazole] showed a pIC50 (NK-1) of 7.00 to 11.00 and a pIC50 (hSERT) of 7.00 to 11.00.

`FC(F)(F)c1cc(COCC2(c3ccccc3)CCNCC2)c2[nH]nc(Br)c2c1` [Example 36, 3-Bromo-7-(((4-phenylpiperidin-4-yl)methoxy)methyl)-5-(trifluoromethyl)-1H-indazole] gave a pIC50 (NK-1) of 7.00 to 11.00 and a pIC50 (hSERT) of 7.00 to 11.00.

Molecule `Cc1n[nH]c2c(COCC3(c4ccccc4)CCNCC3)cc(C(F)(F)F)cc12` [Example 37, 3-Methyl-7-(((4-phenylpiperidin-4-yl)methoxy)methyl)-5-(trifluoromethyl)-1H-indazole] has a pIC50 (NK-1) of 7.00 to 11.00 and a pIC50 (hSERT) of 7.00 to 11.00.

In the case of `c1ccc(C2(COCc3cc(C4CC4)cc4cn[nH]c34)CCNCC2)cc1` [Example 45, 5-Cyclopropyl-7-(((4-phenylpiperidin-4-yl)methoxy)methyl)-1H-indazole], the pIC50 (NK-1) was 7.00 to 11.00 and the pIC50 (hSERT) was 7.00 to 11.00.

`CC(OCC1(c2ccc(F)cc2)CCN(C)CC1)c1cc(N(C)C)cc2cn[nH]c12` (centres unmarked) [Example 51, 7-(1-((4-(4-Fluorophenyl)-1-methylpiperidin-4-yl)methoxy)ethyl)-N,N-dimethyl-1H-indazol-5-amine] gave a pIC50 (NK-1) of 7.00 to 11.00 and a pIC50 (hSERT) of 7.00 to 11.00.

For `CN1CCC(COCc2cc(-c3ccc(C#N)cc3)cc3cnn(C4CC4)c23)(c2ccccc2)CC1` [Example 65, 4-(1-Cyclopropyl-7-(((1-methyl-4-phenylpiperidin-4-yl)methoxy)methyl)-1H-indazol-5-yl)benzonitrile], the pIC50 (NK-1) was 6.52 to 7.00 and the IC50 (hSERT; SERT IC50 (nM)) was 0.01 to 100 nM.

`CN1CCC(COCc2cc(C(F)(F)F)cc3cc[nH]c23)(c2ccccc2)CC1` [Example 66, 7-(((1-Methyl-4-phenylpiperidin-4-yl)methoxy)methyl)-5-(trifluoromethyl)-1H-indole] gave a pIC50 (NK-1) of 7.00 to 11.00 and a pIC50 (hSERT) of 7.00 to 11.00.

`CN1CCC(COCc2cc(C(F)(F)F)cc3ccn(C)c23)(c2ccccc2)CC1` [Example 67, 1-Methyl-7-(((1-methyl-4-phenylpiperidin-4-yl)methoxy)methyl)-5-(trifluoromethyl)-1H-indole] was tested, and the pIC50 (NK-1) was 7.00 to 11.00 and the pIC50 (hSERT) was 7.00 to 11.00.

`CN1CCC(COCc2cc(C(F)(F)F)cc3cc[nH]c23)(c2ccc(F)cc2)CC1` [Example 68, 7-(((1-Methyl-4-(4-fluorophenyl)piperidin-4-yl)methoxy)methyl)-5-(trifluoromethyl)-1H-indole] gave a pIC50 (NK-1) of 7.00 to 11.00 and a pIC50 (hSERT) of 7.00 to 11.00.

For `CN1CCC(COCc2cc(C(F)(F)F)cc3ccn(C)c23)(c2ccc(F)cc2)CC1` [Example 69, 1-Methyl-7-(((1-methyl-4-(4-fluorophenyl)piperidin-4-yl)methoxy)methyl)-5-(trifluoromethyl)-1H-indole], the pIC50 (NK-1) was 7.00 to 11.00 and the pIC50 (hSERT) was 7.00 to 11.00.

With `CN1CCC(COCc2cc(C(F)(F)F)cc3[nH]ccc23)(c2ccccc2)CC1` [Example 76, 4-(((1-Methyl-4-phenylpiperidin-4-yl)methoxy)methyl)-6-(trifluoromethyl)-1H-indole 2,2,2-trifluoroacetate] the pIC50 (NK-1) was 7.00 to 11.00 and the pIC50 (hSERT) was 7.00 to 11.00.

With `CN1CCC(COCc2cc(C(F)(F)F)cc3c2ccn3C)(c2ccccc2)CC1` [Example 77, 1-Methyl-4-(((1-methyl-4-phenylpiperidin-4-yl)methoxy)methyl)-6-(trifluoromethyl)-1H-indole 2,2,2-trifluoroacetate] the pIC50 (NK-1) was 7.00 to 11.00 and the pIC50 (hSERT) was 7.00 to 11.00.

Molecule `CN1CCC(COCc2cc(C(F)(F)F)cc3nnn(C)c23)(c2ccc(F)cc2)CC1` [Example 78, 7-(((4-(4-Fluorophenyl)-1-methylpiperidin-4-yl)methoxy)methyl)-1-methyl-5-(trifluoromethyl)-1H-benzo[d][1,2,3]triazole] has a pIC50 (NK-1) of 6.52 to 7.00 and a pIC50 (hSERT) of 7.00 to 11.00.
